# From ChEMBL document CHEMBL1201862, “PubChem BioAssay data set” (2004)
# Active and inactive are the calls of the source.
# Key:
# [1] = biological target: T1, Fatty acid synthase (Homo sapiens, UniProt P49327); test: FAS thioesterase domain inhibitors, dose response, biochemical, endpoint fluorescence intensity, uHTS hits (AID 624327); assay type: functional;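 further: fluorescence from hydrolysis of an O-methyl fluorescein acyl ester substrate by the enzyme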
# [2] = biological target: T1, Fatty acid synthase; test: FAS thioesterase domain inhibitors, dose response, biochemical, kinetic fluorescence intensity (AID 624326); assay type: functional;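 further: rate of fluorescence rise from hydrolysis of a fluorogenic O-methyl fluorescein ester substrate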
# [3] = growth suppression of PTEN-null colon cells, dose response, cell-based, HCT116 PTEN knockout (AID 1047); assay type: functional;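 further: HCT116 colon tumor cells with PTEN knocked out; cells exposed to compound for 60 hours before readout; potency for loss of cell viability measured by luminescence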
# [4] = growth suppression of beta-catenin-knockout colon cells, dose response, cell-based, HCT116, human colon tumor (AID 1045); assay type: functional;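 further: HCT116 colon tumor cells with beta catenin knocked out; cells exposed to compound for 60 hours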
# [5] = biological target: FAD-linked sulfhydryl oxidase ALR (Homo sapiens, UniProt P55789); test: inhibitors of human ALR sulfhydryl oxidase, dose response, biochemical, H2O2 detection, luminescence, cherry-pick (AID 493248)
# Sequence of FAD-linked sulfhydryl oxidase ALR (P55789 whole entry): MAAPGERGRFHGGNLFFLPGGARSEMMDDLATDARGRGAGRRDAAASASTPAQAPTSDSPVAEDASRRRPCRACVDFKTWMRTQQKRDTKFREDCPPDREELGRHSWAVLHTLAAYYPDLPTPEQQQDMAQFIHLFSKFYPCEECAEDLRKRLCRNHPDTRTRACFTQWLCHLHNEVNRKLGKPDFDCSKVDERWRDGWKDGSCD
# [6] = Shn3 3'UTR reporter inhibitors, dose response, cell-based, Clone20 osteoblasts, firefly luciferase, cherry-picked (AID 624132); assay type: functional;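 further: firefly luciferase luminescence from reporter carrying the Shn3 3'UTR in osteoblasts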
# [7] = HepG2 cell cytotoxicity, dose response, cytotoxicity control for Shn3 inhibitor project, CellTiter-Glo, cherry-picked (AID 624134); assay type: functional, cell-based
# [8] = control 3'UTR Renilla luciferase suppression, dose response, counter-screen for Shn3 inhibitor project, cell-based, Clone20-Shn3RL, cherry-picked (AID 624133); assay type: functional
# [9] = biological target: T2, Ubiquitin-conjugating enzyme E2 N (Homo sapiens, UniProt P61088); assay type: functional;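 further: Dose-response confirmation in a TR-FRET assay detecting UBC13-driven polyubiquitin chain formation, inhibition measured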
# T2 sequence (P61088 whole entry): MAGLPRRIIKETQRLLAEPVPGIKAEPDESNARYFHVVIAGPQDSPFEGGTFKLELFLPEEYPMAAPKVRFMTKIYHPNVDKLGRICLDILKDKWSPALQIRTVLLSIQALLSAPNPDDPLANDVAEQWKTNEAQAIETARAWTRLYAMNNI
# [10] = inhibitors of clade B AD8 Env fusion, dose response, cell-based, cherry-pick (AID 652062); assay type: functional;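 further: luciferase signal from cell-cell fusion driven by HIV-1 clade B AD8 Env; potency is for inhibitors of fusion seen as a drop in luminescence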
# [11] = P. falciparum Dd2 growth inhibitors, dose response, SYBR Green, cherry-picked samples (AID 1159567); assay type: functional, cell-based
# [12] = intracellular Trypanosoma cruzi inhibitors in host cells – cell-based, plate reader, cherry-pick samples, set 3, dose response (AID 651818); assay type: functional;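 further: compounds incubated with infected cells for about four days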
# [13] = system: BJ; test: cytotoxicity toward BJ-TERT fibroblasts, dose response, cell-based, RAS-independent, luminescence (AID 1933); assay type: functional; settings: Homo sapiens
# [14] = system: BJ; test: cells; assay type: functional, cell-based; settings: Homo sapiens
# [15] = system: BJ; test: cytotoxicity toward BJ-TERT-LT-ST fibroblasts, dose response, cell-based, RAS-independent, luminescence (AID 1935); assay type: functional; settings: Homo sapiens;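 further: BJ fibroblasts immortalized with TERT plus LT and ST oncogenes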
# [16] = cytotoxicity toward DRD oncogenic fibroblasts, dose response, cell-based, non-viral oncogenic, luminescence (AID 1934); assay type: functional; settings: Homo sapiens
# [17] = biological target: Induced myeloid leukemia cell differentiation protein Mcl-1 (Homo sapiens, UniProt Q07820); assay type: functional
# Sequence of Induced myeloid leukemia cell differentiation protein Mcl-1 (Q07820 whole entry): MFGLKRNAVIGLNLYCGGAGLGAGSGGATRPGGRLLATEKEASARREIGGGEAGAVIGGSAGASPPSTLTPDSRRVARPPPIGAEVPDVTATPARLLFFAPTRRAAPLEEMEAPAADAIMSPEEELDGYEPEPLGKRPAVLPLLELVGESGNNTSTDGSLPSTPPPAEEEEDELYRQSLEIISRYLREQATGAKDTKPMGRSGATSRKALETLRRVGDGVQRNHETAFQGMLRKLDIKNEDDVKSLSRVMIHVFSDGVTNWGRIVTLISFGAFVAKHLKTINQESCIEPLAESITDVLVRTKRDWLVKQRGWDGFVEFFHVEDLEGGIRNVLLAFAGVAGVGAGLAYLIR
# [18] = biological target: Genome polyprotein (dengue virus type 2, UniProt P29990); test: Dengue-2 NS5 methyltransferase inhibitors, primary screen, biochemical, confirmation dose response (AID 588689); assay type: functional
# Sequence of Genome polyprotein (P29990 2492-3391 limits assumed): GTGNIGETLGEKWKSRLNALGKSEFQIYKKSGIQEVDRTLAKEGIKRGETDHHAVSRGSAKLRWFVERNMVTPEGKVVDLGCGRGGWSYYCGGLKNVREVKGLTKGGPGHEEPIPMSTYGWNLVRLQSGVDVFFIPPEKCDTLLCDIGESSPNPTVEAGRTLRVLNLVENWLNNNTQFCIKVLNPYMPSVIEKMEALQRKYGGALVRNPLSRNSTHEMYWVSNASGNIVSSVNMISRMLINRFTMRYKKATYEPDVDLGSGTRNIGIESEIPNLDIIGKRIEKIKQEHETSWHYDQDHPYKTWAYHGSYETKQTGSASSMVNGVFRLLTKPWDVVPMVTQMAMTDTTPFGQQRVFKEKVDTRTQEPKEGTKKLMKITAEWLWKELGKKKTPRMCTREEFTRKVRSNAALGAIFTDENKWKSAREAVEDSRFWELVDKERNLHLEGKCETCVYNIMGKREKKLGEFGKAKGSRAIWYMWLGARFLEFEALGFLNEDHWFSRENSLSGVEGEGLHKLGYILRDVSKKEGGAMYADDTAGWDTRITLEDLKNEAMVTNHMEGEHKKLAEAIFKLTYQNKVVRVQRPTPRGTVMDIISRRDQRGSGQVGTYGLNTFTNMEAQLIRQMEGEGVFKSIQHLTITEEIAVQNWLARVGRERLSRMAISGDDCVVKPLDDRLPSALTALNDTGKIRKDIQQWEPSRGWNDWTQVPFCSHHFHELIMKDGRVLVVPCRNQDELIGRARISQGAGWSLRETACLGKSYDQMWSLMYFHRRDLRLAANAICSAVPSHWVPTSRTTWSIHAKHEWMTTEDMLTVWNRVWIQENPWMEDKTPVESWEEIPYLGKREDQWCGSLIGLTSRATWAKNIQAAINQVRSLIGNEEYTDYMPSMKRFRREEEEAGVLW
# T1 sequence (P49327 whole entry, the tested form may be a part): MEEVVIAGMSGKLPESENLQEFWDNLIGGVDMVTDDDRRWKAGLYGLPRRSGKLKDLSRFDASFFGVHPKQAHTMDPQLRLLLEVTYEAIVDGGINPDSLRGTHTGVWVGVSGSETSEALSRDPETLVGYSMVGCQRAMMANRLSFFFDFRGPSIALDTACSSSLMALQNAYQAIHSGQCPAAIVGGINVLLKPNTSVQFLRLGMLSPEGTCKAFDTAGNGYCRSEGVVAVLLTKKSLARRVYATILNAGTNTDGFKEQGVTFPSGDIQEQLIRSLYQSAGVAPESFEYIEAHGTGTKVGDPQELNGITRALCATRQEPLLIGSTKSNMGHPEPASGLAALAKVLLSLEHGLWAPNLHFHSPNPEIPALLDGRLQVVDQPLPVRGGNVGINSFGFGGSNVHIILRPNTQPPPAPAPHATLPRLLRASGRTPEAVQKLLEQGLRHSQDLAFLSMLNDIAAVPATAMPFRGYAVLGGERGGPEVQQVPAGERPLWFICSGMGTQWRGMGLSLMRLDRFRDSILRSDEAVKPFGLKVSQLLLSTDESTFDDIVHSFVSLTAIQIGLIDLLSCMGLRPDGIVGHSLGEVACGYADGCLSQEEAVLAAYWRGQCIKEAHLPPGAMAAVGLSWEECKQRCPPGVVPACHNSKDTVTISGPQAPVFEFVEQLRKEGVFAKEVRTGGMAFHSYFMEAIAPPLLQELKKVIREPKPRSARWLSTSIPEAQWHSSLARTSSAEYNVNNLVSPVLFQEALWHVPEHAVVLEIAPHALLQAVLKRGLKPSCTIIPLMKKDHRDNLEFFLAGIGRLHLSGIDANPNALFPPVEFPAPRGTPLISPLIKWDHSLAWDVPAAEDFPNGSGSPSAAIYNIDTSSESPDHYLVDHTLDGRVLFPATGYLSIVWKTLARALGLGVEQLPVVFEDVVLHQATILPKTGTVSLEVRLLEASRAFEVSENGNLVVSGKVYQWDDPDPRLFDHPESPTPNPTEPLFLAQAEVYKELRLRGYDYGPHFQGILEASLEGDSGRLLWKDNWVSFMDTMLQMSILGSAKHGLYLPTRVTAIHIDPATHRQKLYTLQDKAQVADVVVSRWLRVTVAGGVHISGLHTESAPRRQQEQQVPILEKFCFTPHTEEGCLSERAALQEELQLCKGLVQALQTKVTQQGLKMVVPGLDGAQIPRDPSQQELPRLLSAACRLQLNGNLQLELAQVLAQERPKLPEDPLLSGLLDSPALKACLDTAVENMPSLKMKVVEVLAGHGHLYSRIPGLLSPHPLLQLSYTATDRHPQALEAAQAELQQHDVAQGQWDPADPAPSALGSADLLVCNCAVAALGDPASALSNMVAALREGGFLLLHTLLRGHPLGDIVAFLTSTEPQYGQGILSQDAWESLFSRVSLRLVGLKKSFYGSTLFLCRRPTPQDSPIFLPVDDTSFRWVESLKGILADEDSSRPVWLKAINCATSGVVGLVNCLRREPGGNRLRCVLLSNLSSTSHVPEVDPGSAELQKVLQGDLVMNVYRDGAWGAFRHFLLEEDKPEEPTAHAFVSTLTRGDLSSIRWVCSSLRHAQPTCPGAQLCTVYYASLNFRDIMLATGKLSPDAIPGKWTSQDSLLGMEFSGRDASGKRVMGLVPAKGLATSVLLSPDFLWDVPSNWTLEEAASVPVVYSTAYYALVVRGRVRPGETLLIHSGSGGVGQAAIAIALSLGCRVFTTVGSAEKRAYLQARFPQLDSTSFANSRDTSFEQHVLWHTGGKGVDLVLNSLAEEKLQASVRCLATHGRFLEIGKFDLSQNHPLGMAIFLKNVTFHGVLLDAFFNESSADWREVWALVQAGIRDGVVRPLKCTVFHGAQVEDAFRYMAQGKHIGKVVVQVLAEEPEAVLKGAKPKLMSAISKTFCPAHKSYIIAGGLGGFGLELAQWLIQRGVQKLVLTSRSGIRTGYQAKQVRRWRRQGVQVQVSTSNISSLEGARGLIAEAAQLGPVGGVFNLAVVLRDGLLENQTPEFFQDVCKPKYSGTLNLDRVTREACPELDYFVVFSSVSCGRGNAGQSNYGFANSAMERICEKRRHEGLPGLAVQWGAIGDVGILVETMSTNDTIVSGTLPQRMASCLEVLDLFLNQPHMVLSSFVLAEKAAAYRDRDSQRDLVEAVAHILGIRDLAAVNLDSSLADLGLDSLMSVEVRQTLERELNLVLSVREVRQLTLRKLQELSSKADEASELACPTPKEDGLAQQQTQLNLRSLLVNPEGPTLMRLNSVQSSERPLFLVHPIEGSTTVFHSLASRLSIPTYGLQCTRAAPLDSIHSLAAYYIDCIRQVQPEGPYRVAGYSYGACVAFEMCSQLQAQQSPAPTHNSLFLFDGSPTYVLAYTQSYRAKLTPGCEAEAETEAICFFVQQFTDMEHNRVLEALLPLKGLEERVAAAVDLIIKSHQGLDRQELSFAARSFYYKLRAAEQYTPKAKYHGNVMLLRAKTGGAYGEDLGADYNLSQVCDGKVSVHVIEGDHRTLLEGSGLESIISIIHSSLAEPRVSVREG
smiles,measurement,setting,value
O=C(/C=C/c1cccc([N+](=O)[O-])c1)NCCSCc1ccc(Cl)cc1,IC50,[1],10.2 µM (active)
same,IC50,[2],11.6 µM (active)
COc1ccccc1/C=C(\NC(=O)c1ccc(OC)c(OC)c1)C(=O)Nc1cc([N+](=O)[O-])ccc1C,EC50,[3],43.6 µM (active)
same,EC50,[4],44.4 µM (active)
same,IC50,[1],2.16 µM (active)
same,IC50,[2],3.48 µM (active)
CSCC[C@H](NC(=O)N1CCn2c1nc1ccccc12)C(=O)NCc1ccco1,AC50,[5],6.97 µM (active)
O=C(Nc1ccc(F)c(F)c1)c1ccc(F)c(S(=O)(=O)N2CCC3(CC2)OCCO3)c1,AC50,[6],12.2 µM (active)
same,AC50,[7],42.3 µM (active)
same,AC50,[8],11.2 µM (active)
Cc1[nH]c2ccccc2c1/C=N/NC(=O)Cc1cccs1,AC50,[5],4.46 µM (active)
COC(=O)C1=C(C)N(CC2CC2)C(NCc2cccc(C(F)(F)F)c2)=N[C@H]1c1ccccc1,IC50,[9],> 20 µM (inactive)
CCC[C@@H](CN1CCC[C@H]1CN1C(N)=NC[C@H]1C(C)C)N1C[C@@H]([C@H](C)CC)N(CCCC2CCCC2)C1=N,IC50,[9],> 20 µM (inactive)
COc1ccc(NC(=O)C2(C)CCN2Cc2ccccc2OC(F)F)cc1OC (stereo not drawn),AC50,[10],55.5 µM (active)
COc1ccccc1C(=O)COC(=O)c1cc([N+](=O)[O-])ccc1N1CCOCC1,IC50,[1],5.96 µM (active)
same,IC50,[2],6.45 µM (active)
COc1ccc2c3c([nH]c2c1)[C@@H](CO)N(Cc1ccccc1F)CC31CN(C(=O)C2CCCC2)C1,AC50,[11],6.64 µM (active)
C[C@@H]1CN([C@@H](C)CO)C(=O)c2cccc(NC(=O)CCCCCC(=O)Nc3ccccc3N)c2O[C@@H]1CN(C)S(=O)(=O)c1ccc(Cl)cc1,AC50,[12],3.26 µM (active)
O=Cc1cccnc1SCc1ccccc1,EC50,[13],10.5 µM (active)
same,EC50,[14],16.3 µM (active)
same,EC50,[15],11.1 µM (inconclusive)
same,EC50,[16],21.3 µM (active)
O=C(NC1CC1)c1ccc(CSCc2ccccc2Cl)o1,AC50,[5],0.549 µM (active)
Cc1ccc2c(c1)C(c1ccccc1)N(C(=O)c1cccc([N+](=O)[O-])c1)CC(=O)N2 (stereo not drawn),IC50,[1],2.57 µM (active)
same,IC50,[2],2.53 µM (active)
CCCCNC(=O)c1ccc(CS(=O)(=O)c2ccc(C)cc2)o1,AC50,[5],15.6 µM (active)
COc1cccc(NC(C)C(=O)Nc2cc([N+](=O)[O-])ccc2Cl)c1 (stereo not drawn),IC50,[1],9.92 µM (active)
same,IC50,[2],12.4 µM (active)
CCO[C@H]1OC(C(=O)NCc2ccccc2)=C[C@@H](C2CCCCC2)[C@@H]1CCCO,IC50,[1],7.45 µM (active)
same,IC50,[2],11.5 µM (active)
COc1ccc2c3c(n(C)c2c1)[C@H](CO)N(C(=O)Nc1cccc(F)c1)CC31CN(C)C1,AC50,[11],5.83 µM (active)
O=C1NC(=S)N(c2ccccc2F)C(=O)/C1=C\c1cccs1,IC50,[17],2.07 µM (active)
same,IC50,[18],70.3 µM (active)
O=C(C1CCCCC1)N1CCN=C1SCc1cccnc1,AC50,[5],0.097 µM (active)
COc1cc(/C=C2/SC(NS(=O)(=O)Cc3ccccc3)=NC2=O)c([N+](=O)[O-])cc1OC,IC50,[18],76.1 µM (active)
CO[C@H]1CN(C)C(=O)c2ccc(NC(=O)c3nc4ccccc4s3)cc2OC[C@H](C)N(Cc2ccncc2)C[C@@H]1C,AC50,[11],5.3 µM (active)
COc1ccc(S(=O)(=O)N(C)C[C@H]2Oc3ccc(NS(=O)(=O)c4ccc(F)cc4)cc3CC(=O)N([C@H](C)CO)C[C@H]2C)cc1,AC50,[12],8.25 µM (active)
COc1cccc(CNn2cnnc2)c1O,AC50,[5],2.23 µM (active)
